Some results are limits rather than exact numbers.

This note sets out measurements from US20020198219A1, “2-pyridinamine compositions and related methods” (priority 2000, published 2002).

In one data set the target is T1, Calmodulin Kinase (Rattus norvegicus, UniProt P11275).
T1 construct: host or cells: insect cells
Kind of data set: Kinase assay (33P Flashplate), Calmodulin Kinase. To be noted: mean of at least two curves. The class given is biochemical. The protocol: (§1) The general procedure used to assay for kinase activity was as follows: a kinase reaction mix was prepared in 50 mM Tris-HCl pH=8, 10 mM MgCl2, 0.1 mM Na3VO4, 1 mM DTT, 10 μM ATP, 0.25-1 μM biotinylated peptide substrate, 0.2-0.8 [Curies per well ^33P-γ-ATP [2000-3000 Ci/mmol]. Assay conditions varied slightly for each protein kinase, for example, insulin receptor kinase requires 10 mM MnCl2 for activity and calmodulin-dependent protein kinase requires calmodulin and 10 mM CaCl2. Reaction mix was dispensed into the wells of a streptavidin-coated Flashplate and 1 μl drug stock in 100% DMSO was added to a 100 μL reaction volume resulting in a final concentration of 1% DMSO in the reaction. Enzyme was diluted in 50 mM Tris-HCl pH=8.0, 0.1% BSA and added to each well. […] Test compounds were assayed in duplicate at 8 concentrations ranging from 100 μM to 10 μM in one order of magnitude steps. […] The IC50 was calculated from the dose response curve of the percent inhibition of the maximum signal in the assay according to the formula [max signal−background/test compound signal−background×(100)]=% inhibition by graphing the percent inhibition against the log concentration of test compound.
(§2) Casein Kinase 1 is a truncation at amino acid 318 of the C-terminal portion of the rat CK1 delta isoform produced in E. coli.

A further data set concerns the target T2, Casein Kinase 2 (Homo sapiens, UniProt P68400).
T2 construct: host or cells: E. coli
Kind of data set: Kinase assay (33P Flashplate), Casein Kinase 2. Format: biochemical. The settings on record: mean of at least two curves. The protocol:
as §1, §2

The test system of data set [1] is differentiated P19 neurons. Kind of data set: Differentiated P19 excitotoxicity assay (glutamate/glycine-induced death, Alamar Blue). Format: cell-based, murine. To be noted: Mus musculus, Neuron, 3 mM glutamate + 1 mM glycine. The protocol: Alamar Blue fluorescence, an indicator of cell viability, was used to determine cell viability after an NMDA-induced cytotoxic insult. […] However, since raw fluorescence counts vary from experiment to experiment, FIGS. 2A, 2B, and 2C are expressed as a percent of control.
(§3) Glutamate toxicity dose response in the presence of a constant 1 mM glycine concentration was measured in the differentiated P19 neurons. The curve generated through the data points is the average of 6 separate dose response curves. Data points are represented as the percent of control cells ±standard error. % control=(([Glutamate]exp−[Glutamate]max)/(Controlvehicle−[Glutamate]max))×100.
Data points are the average ±standard error of three separate experiments.
These cells were used to measure the effects of various known kinase inhibitors (Compound Identification (ID) column in Table I) upon cytotoxicity-induced by NMDA. First, P19 cells were differentiated as described in Example 2. Then cells were exposed to 3 mM of glutamate in the presence of 1 mM glycine.
Cell viability was determined. Compounds that prevented excitotoxicity were determined by measuring the percentage of viable cells compared to differentiated P19 cells that were not presented with a toxic insult (Table I).
Cell viability was measured using two methods. The first method was a confocal, single-cell fluorescence imaging-based method using the live cell dye carboxy-fluorescein diacetate (CFDA). CFDA labels the cell bodies and processes of living cells. […] CFDA fluorescence was measured using a modified Attofluor Imager device (Atto Instruments, Rockville Pike, Md.). Cells were labeled with 1 uM CFDA for 15 min in media, then placed onto the stage of the Attofluor microscope. The dye was excited by light from a mercury lamp source passed through a 488 nm bandpass filter of 10 nm band width, passed through a CARV real-time confocal spinning disk module (Atto Instruments, Rockville, Md.), and then passed through a 40× oil immersion objective (Zeiss Fluar, NA=1.3). Emitted light was transmitted through a 495 nm dichroic mirror, collected to an Attofluor intensified CCD camera, and images were visualized using Attofluor RatioVision software (Atto Instruments, Rockville, Md.).
The second method for measuring cell viability was a plate reader method. Cells plated into black 96 well plates (Packard viewplates) are loaded with 5% Alamar Blue dye (Biosource International). Alamar Blue is a dye that takes advantage of mitochondrial reductases to convert non-fluorescent resazurin to fluorescent resorufin (excitation 535 nm, emission 580 nm). Baseline fluorescence counts were read at room temperature in a Wallac plate reader immediately after addition of Alamar blue. Fluorescence counts of cell viability were taken the same way after 1 hour incubation at 37° C. Fluorescence was expressed as a percent of control, untreated cells after subtraction of background fluorescence. Live/dead cells were confirmed visually with a light microscope. […]
(The colour change of resazurin is a common sign of viable cells or microbes.)

The target in the next data set is EGF-R (Homo sapiens, UniProt P00533). Kind of data set: biochemical. The method, then: (§4) Assay conditions varied slightly for each protein kinase, for example, insulin receptor kinase requires 10 mM MnCl2 for activity and calmodulin-dependent protein kinase requires calmodulin and 10 mM CaCl2. Reaction mix was dispensed into the wells of a streptavidin-coated Flashplate and 1 μl drug stock in 100% DMSO was added to a 100 μL reaction volume resulting in a final concentration of 1% DMSO in the reaction. Enzyme was diluted in 50 mM Tris-HCl pH=8.0, 0.1% BSA and added to each well. The reaction was incubated for one hour at 30° C. in the presence of compound. After one hour the reaction mix was aspirated from the plate and the plate was washed with PBS containing 100 mM EDTA. The plate was read on a scintillation counter to determine ^33P-γ-ATP incorporated into the immobilized peptide. Test compounds were assayed in duplicate at 8 concentrations ranging from 100 μM to 10 μM in one order of magnitude steps. A maximum and minimum signal for the assay was determined on each plate. The IC50 was calculated from the dose response curve of the percent inhibition of the maximum signal in the assay according to the formula [max signal−background/test compound signal−background×(100)]=% inhibition by graphing the percent inhibition against the log concentration of test compound. Known inhibitor compounds appropriate for the kinase being assayed were also included on each plate. […]

In the next data set the target is T3, CDK1 (Homo sapiens, UniProt P06493).
T3 construct: host or cells: insect cells
Briefly: Kinase assay (33P Flashplate), CDK1. To be noted: mean of at least two curves. Format: biochemical. The method, then: as §1, §2

The target in a further data set is T4, PK A (Bos taurus, UniProt P00517).
T4 construct: Protein Kinase A is the catalytic subunit of cAMP-dependent protein kinase-A purified from bovine heart; from tissue; host or cells: bovine heart
Briefly: Kinase assay (33P Flashplate), Protein Kinase A. Format: biochemical, bovine. The protocol:
as §4

Another data set addresses T5, PKC-γ (Homo sapiens, UniProt P05129).
T5 construct: host or cells: insect cells
Kind of data set: Kinase assay (33P Flashplate), PKC-γ. The settings on record: mean of at least two curves. The class given is biochemical. The method, then:
as §1, §2

For a further data set, the system named is P19 neurons. The method, then:
as §3

For the next data set, the target named is T6, Casein Kinase 1 (Rattus norvegicus, UniProt Q06486).
T6 construct: a truncation at amino acid 318 of the C-terminal portion of the rat CK1 delta isoform; host or cells: E. coli
T6 sequence (Q06486 1-317): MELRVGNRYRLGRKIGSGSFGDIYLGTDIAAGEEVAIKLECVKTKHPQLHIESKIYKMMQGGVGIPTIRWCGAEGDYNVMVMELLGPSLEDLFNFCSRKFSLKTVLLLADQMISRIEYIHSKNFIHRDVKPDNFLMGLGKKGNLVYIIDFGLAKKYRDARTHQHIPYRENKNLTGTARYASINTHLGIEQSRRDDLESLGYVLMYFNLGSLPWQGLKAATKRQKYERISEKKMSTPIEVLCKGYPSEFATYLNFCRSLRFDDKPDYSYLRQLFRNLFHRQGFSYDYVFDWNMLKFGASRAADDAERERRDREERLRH
Kind of data set: Kinase assay (33P Flashplate), Casein Kinase 1. To be noted: mean of at least two curves. The class given is biochemical. The method, then:
as §1, §2

Sequence of EGF-R (P00533 25-1210): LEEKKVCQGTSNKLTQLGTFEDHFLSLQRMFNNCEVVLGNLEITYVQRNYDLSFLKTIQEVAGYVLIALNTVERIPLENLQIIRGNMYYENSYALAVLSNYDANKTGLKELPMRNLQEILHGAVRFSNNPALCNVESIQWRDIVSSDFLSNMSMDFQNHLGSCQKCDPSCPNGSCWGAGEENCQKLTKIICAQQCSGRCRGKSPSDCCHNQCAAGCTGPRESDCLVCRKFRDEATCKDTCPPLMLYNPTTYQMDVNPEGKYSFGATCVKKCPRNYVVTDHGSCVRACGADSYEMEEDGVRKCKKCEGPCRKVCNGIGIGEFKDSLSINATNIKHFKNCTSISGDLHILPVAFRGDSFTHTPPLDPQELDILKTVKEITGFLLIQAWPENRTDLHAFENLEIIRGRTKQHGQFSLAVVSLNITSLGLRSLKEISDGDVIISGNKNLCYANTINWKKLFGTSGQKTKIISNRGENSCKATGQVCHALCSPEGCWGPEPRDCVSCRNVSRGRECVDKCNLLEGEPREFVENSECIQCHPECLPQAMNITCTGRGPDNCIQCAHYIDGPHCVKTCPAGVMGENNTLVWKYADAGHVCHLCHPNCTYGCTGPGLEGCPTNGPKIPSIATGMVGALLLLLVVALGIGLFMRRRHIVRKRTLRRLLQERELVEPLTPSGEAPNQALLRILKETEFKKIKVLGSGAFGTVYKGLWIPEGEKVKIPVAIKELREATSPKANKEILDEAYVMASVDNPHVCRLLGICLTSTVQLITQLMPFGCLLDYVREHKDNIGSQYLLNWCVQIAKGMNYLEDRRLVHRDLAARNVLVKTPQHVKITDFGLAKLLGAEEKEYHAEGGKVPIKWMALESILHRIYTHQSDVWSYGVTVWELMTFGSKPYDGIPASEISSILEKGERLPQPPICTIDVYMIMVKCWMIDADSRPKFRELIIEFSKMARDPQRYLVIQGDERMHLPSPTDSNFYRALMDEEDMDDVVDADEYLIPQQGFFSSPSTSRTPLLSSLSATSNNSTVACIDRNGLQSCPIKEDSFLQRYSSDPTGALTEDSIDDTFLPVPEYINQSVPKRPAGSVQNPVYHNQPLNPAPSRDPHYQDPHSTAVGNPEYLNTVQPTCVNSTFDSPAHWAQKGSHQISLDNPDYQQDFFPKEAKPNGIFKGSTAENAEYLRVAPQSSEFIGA
T2 sequence (P68400 whole entry): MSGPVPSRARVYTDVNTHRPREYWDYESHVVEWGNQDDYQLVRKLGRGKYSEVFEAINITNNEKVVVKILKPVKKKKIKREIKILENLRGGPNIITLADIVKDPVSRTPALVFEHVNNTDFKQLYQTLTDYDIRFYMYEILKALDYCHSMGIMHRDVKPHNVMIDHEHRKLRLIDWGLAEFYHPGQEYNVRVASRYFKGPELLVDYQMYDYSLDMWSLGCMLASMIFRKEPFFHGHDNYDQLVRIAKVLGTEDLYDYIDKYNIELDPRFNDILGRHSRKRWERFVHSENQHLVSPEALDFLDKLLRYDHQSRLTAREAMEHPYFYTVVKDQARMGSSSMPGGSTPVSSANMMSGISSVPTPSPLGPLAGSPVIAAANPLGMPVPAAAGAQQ
T2 sequence (P67870 whole entry partner): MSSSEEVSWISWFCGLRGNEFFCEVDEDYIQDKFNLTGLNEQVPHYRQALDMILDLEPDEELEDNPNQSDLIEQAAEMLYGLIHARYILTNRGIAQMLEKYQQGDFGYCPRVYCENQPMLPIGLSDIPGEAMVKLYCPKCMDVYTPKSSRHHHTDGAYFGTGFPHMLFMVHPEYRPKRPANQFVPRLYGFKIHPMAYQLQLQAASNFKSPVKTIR
T1 sequence (P11275 1-325): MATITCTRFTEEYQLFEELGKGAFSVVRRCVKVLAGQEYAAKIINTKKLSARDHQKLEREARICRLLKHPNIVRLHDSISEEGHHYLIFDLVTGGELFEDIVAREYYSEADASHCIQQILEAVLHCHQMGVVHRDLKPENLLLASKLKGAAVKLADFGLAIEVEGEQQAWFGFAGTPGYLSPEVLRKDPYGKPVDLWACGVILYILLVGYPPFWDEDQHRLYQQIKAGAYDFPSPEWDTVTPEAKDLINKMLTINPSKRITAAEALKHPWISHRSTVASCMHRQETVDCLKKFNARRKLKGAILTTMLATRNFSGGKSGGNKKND
T3 sequence (P06493 whole entry): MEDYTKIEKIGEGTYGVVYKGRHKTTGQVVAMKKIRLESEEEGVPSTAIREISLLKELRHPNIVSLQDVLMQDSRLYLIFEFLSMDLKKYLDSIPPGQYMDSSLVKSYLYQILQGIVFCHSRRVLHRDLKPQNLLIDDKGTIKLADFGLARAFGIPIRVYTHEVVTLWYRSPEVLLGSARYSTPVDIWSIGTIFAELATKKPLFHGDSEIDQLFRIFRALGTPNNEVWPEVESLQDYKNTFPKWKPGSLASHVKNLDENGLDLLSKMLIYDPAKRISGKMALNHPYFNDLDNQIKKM
T3 sequence (P14635 whole entry partner): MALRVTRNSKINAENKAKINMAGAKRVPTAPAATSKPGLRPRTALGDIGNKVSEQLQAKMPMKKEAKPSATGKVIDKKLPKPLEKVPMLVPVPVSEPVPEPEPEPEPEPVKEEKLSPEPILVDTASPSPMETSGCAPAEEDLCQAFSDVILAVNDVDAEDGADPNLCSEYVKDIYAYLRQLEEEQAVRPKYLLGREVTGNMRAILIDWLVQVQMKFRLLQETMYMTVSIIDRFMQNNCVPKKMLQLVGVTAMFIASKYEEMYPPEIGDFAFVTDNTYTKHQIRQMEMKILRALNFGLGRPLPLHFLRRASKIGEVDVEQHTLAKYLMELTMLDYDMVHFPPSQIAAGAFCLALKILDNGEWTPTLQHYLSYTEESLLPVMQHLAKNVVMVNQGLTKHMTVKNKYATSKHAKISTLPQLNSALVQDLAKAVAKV

For the compound `N#CC(=C(/N)Sc1ccccc1N)/C(C#N)=C(/N)Sc1ccccc1N` [U0126, bis[amino[(2-aminophenyl)thio]methylene] Butanedinitrile], the IC50 is over 100 µM against Calmodulin Kinase; over 100 µM on Casein Kinase 2; 1.1 µM in data set [1] (mean of three separate curves, read-out: IC50 for Neuroprotection [lower-upper 95% C.I.]); over 100 µM at EGF-R; over 100 µM at CDK1; over 100 µM against PK A. Besides, the half-inhibitory concentration (IC50) is 29.5 µM against PKC-γ and over 100 µM against Casein Kinase 1. In data set [1] (read-out: Maximal Efficacy for Neuroprotection), the Emax is over 80%. Further, the “effect on basal P19 neuron viability” value in the data set on P19 neurons is recorded as “did not affect the basal viability”.

In general, IC50 refers to the concentration at which inhibition is half-maximal.
